For one assay, the target named is T1, CDK7/Cyclin H/MNAT1 (Homo sapiens, UniProt P50613).
T1 construct: purchased Invitrogen PR6749B
Description: Enzymatic assay for CDK7 (FRET based LANCE Ultra kinase assay). In kind it is biochemical. Conditions: for IC50: read-out: CDK7 enzymatic activity (IC50 range). Summed up: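 Inhibition was measured at Km ATP by time-resolved FRET between a Eu anti-phospho antibody and a phosphorylated ULight peptide. The enzyme was the purified CDK7/cyclin complex, and data were curve-fitted.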

Another assay addresses T2, CDK5/p25 (Homo sapiens, UniProt Q00535).
T2 construct: purchased Invitrogen PR8543B
Briefly: Enzymatic assay for CDK5 (FRET based LANCE Ultra kinase assay). To be noted: read-out: CDK5 enzymatic activity (IC50 range). In kind it is biochemical. Summed up: (§1)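 TR-FRET (LANCE Ultra) kinase assay at ATP Km, ULight-MBP peptide substrate (68 nM), 8-dose 4-fold compound series in DMSO. Enzymes: […]; 60 min at 23° C., stopped with EDTA plus Eu-anti-phospho-MBP antibody, read 665/615 nm after 60 min.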
A general note: In TR-FRET formats the signal depends on donor and acceptor labels being close together.

In the next assay the test system is H460. Briefly: Cellular H460 viability assay (CellTiter-Glo, 72 hours). The assay is classed as cell-based. To be noted: Homo sapiens, NCI-H460. The essentials: (§2)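 CellTiter-Glo luminescence read in duplicate after 72 h compound exposure (37 °C, 5% CO2); DMSO-only control, final DMSO under 0.1%.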
Background: ATP-based viability assays read luminescence as a measure of living cells.

A further assay has as its system RPMI-8226. Description: Cellular RPMI-8226 viability assay (CellTiter-Glo, 72 hours). The assay is classed as cell-based. To be noted: Homo sapiens. As for the experimental part: (§3) All cell lines were routinely tested for mycoplasma.
(§4) The effect of the CDK7 inhibitor to inhibit the growth of target cancer cells was evaluated through the 72 hours time period of viability assay. Briefly, the candidate cell line ware plated in 96 well plate at the following density of cells respectively. […] DMSO solvent without compound served as a control and final DMSO concentration less than 0.1%. After 72 hours of incubation at 37° C., 5% CO2 incubator, cells were analyzed for the viability using the CellTiter-Glo Luminescent Cell Viability Assay (Promega, Cat #G7570). All viability assays were performed in duplicate and Luminescence was read using an Envision (Perkin Elmer, USA). Data was analyzed using XLfit software.

Another assay concerns the target T3, CDK1/Cyclin B (Homo sapiens, UniProt P06493).
T3 construct: purchased Invitrogen PR4768C
Description: Enzymatic assay for CDK1 (FRET based LANCE Ultra kinase assay). Conditions: read-out: CDK1 enzymatic activity (IC50 range). In kind it is biochemical. The essentials:
as §1

Another assay deals with T4, CDK2/Cyclin A (Homo sapiens, UniProt P24941).
T4 construct: purchased Invitrogen PV6290
Briefly: Enzymatic assay for CDK2 (FRET based LANCE Ultra kinase assay). The assay is classed as biochemical. Conditions: read-out: CDK2 enzymatic activity (IC50 range). The essentials: as §1

For a further assay, the system named is MV4-11. Briefly: Cellular MV4-11 viability assay (CellTiter-Glo, 72 hours). Conditions: Homo sapiens. In kind it is cell-based. The essentials:
as §2

In a further assay the test system is MOLT-4. Description: Cellular MOLT-4 viability assay (CellTiter-Glo, 72 hours). The assay is classed as cell-based. Conditions: Homo sapiens, MOLT4 viability assay. The procedure: as §3, §4
In the next assay the test system is HCT116. Description: Cellular HCT116 viability assay (CellTiter-Glo, 72 hours). The assay is classed as cell-based. Conditions: Homo sapiens, HCT-116. The essentials:
as §2

Here are results for seven molecules from patent US11945822B2, “Pyrazolo-triazine and/or pyrazolo-pxrimidine derivatives as selective inhibitor of cyclin dependent kinase” (QURIENT CO., LTD., priority 2018, dated 2024).

T3 sequence (P06493 whole entry): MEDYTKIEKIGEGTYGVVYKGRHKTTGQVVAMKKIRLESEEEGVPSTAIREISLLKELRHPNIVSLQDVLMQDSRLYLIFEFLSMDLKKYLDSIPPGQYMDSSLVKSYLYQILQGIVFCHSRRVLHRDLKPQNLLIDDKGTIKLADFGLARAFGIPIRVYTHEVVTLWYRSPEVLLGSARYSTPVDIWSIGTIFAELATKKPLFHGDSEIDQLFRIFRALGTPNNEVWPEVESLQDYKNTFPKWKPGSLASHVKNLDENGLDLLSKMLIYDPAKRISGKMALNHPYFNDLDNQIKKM
T3 sequence (P14635 whole entry partner): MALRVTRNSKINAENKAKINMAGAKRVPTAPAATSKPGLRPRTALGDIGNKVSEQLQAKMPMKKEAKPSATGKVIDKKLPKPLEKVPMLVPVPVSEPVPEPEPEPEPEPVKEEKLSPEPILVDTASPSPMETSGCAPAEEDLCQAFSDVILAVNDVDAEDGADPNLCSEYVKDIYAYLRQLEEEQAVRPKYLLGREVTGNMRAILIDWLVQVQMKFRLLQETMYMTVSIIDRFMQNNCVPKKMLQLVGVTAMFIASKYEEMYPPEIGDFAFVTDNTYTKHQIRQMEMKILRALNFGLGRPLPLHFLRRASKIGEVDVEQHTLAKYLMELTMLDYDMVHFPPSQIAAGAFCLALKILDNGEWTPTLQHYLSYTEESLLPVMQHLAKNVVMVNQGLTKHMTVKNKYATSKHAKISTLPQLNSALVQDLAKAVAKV
T2 sequence (Q00535 whole entry): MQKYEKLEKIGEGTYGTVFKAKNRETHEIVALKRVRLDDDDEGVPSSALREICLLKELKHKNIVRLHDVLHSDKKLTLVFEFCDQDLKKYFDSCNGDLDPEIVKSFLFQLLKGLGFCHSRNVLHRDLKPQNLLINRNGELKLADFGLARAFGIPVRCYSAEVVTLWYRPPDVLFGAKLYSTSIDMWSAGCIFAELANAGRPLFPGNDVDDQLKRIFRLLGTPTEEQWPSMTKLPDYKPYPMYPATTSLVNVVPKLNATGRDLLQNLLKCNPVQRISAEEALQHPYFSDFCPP
T2 sequence (Q15078 99-307 partner limits assumed): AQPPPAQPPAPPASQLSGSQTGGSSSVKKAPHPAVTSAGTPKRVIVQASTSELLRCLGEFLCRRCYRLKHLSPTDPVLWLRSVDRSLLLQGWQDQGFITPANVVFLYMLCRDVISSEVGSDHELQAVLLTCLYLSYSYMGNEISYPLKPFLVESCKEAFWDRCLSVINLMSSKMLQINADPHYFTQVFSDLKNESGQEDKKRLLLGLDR
T1 sequence (P50613 whole entry): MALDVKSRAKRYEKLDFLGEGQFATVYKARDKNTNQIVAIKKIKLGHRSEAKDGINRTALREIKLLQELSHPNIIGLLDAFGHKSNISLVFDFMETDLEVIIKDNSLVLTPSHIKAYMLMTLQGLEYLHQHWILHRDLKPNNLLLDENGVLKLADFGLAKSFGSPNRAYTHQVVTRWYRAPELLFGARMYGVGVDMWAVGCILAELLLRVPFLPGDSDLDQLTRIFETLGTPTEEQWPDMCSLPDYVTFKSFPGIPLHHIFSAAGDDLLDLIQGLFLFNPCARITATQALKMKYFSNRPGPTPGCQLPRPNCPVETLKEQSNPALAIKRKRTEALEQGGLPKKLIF
T1 sequence (P51946 whole entry partner): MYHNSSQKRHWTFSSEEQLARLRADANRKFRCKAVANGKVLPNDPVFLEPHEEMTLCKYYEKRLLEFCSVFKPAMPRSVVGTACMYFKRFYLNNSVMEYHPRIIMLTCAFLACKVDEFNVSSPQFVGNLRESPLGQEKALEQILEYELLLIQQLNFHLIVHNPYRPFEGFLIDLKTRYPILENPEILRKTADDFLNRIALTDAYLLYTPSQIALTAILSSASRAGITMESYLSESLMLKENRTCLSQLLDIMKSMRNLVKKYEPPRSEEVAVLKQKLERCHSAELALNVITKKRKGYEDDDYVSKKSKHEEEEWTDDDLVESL
T1 sequence (P51948 whole entry partner): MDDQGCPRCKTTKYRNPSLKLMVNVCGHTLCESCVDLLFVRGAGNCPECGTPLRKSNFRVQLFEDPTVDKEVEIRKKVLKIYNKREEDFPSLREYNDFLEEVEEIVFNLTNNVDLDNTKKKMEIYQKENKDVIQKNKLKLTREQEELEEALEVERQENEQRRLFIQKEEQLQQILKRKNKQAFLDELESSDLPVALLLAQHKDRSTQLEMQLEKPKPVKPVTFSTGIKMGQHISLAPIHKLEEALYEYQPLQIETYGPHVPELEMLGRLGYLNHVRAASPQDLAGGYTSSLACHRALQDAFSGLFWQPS

For the molecule `CC(C)c1cnn2c(NCc3ccccc3-c3ccc4c(c3)NC(=O)C(C)(C)O4)nc(N3CCC(N)CC3)nc12` [Compound 138], the “CDK1/CDK7: Selectivity of CDK7 inhibition over CDK1 inhibition” value on CDK7/Cyclin H/MNAT1 is listed as “A (A=greater than 200 fold)”. Further, the “CDK2/CDK7: Selectivity of CDK7 inhibition over CDK2 inhibition” value on CDK7/Cyclin H/MNAT1 is reported as “B (B=less than 200 fold, but greater than 20 fold)”. The “CDK5/CDK7: Selectivity of CDK7 inhibition over CDK5 inhibition” value on CDK7/Cyclin H/MNAT1 was “C (C=less than 20 fold)”. Further, the 50% inhibitory concentration (IC50) (in general, the concentration needed to halve the response being measured) is less than 100 nM at CDK7/Cyclin H/MNAT1; less than 100 nM on CDK5/p25; less than 1000 nM with H460; less than 1000 nM in the assay with RPMI-8226; 100 to 1000 nM at CDK1/Cyclin B; 100 to 1000 nM at CDK2/Cyclin A.

As for `CC(C)c1cnn2c(NCc3ccccc3NC(=O)c3cccc(NC(=O)CCCN(C)C)c3)nc(N3CCC(N)CC3)nc12` [Compound 89], the IC50 was less than 1000 nM in the assay with MV4-11; 1 to 10 µM in the assay with MOLT-4; less than 100 nM on CDK7/Cyclin H/MNAT1; 100 to 1000 nM on CDK5/p25; more than 1000 nM on CDK1/Cyclin B; more than 1000 nM at CDK2/Cyclin A. The IC50 in the assay on HCT116 lay in the range of 1000 to 10000 nM. For the same molecule, the “CDK1/CDK7: Selectivity of CDK7 inhibition over CDK1 inhibition” value at CDK7/Cyclin H/MNAT1 is listed as “A (A=greater than 200 fold)”. Further, the “CDK2/CDK7: Selectivity of CDK7 inhibition over CDK2 inhibition” value on CDK7/Cyclin H/MNAT1 was “A (A=greater than 200 fold)”. Further, the “CDK5/CDK7: Selectivity of CDK7 inhibition over CDK5 inhibition” value on CDK7/Cyclin H/MNAT1 is “B (B=less than 200 fold, but greater than 20 fold)”.

Regarding `CC(C)c1cnn2c(NCc3ccccc3-n3cccn3)cc(N3CCC(N)CC3)nc12` [Compound 1], the half-maximal inhibitory concentration (IC50) with MOLT-4 is 1 to 10 µM; on CDK7/Cyclin H/MNAT1 it was less than 100 nM; at CDK5/p25, 100 to 1000 nM; in the assay on H460, less than 1000 nM; on CDK1/Cyclin B it was more than 1000 nM; on CDK2/Cyclin A it was more than 1000 nM. Besides, in the assay with HCT116, the IC50 is 1000 to 10000 nM. In addition, the “CDK1/CDK7: Selectivity of CDK7 inhibition over CDK1 inhibition” value at CDK7/Cyclin H/MNAT1 is listed as “B (B=less than 200 fold, but greater than 20 fold)”. Further, on CDK7/Cyclin H/MNAT1, the “CDK2/CDK7: Selectivity of CDK7 inhibition over CDK2 inhibition” value is “B (B=less than 200 fold, but greater than 20 fold)”. The “CDK5/CDK7: Selectivity of CDK7 inhibition over CDK5 inhibition” value on CDK7/Cyclin H/MNAT1 was “C (C=less than 20 fold)”.

For `CC(C)c1cnn2c(NCc3cccc(Oc4ccccc4)c3)nc(N3CCC(N)CC3)nc12` [Compound 51], the IC50 is 1 to 10 µM in the assay on MOLT-4; less than 100 nM on CDK7/Cyclin H/MNAT1; more than 1000 nM at CDK5/p25; 1000 to 10000 nM in the assay on H460; more than 1000 nM on CDK1/Cyclin B; more than 1000 nM at CDK2/Cyclin A. This molecule came in with an IC50 with HCT116 of 1000 to 10000 nM. The “CDK1/CDK7: Selectivity of CDK7 inhibition over CDK1 inhibition” value at CDK7/Cyclin H/MNAT1 is “B (B=less than 200 fold, but greater than 20 fold)”. Besides, on CDK7/Cyclin H/MNAT1, the “CDK2/CDK7: Selectivity of CDK7 inhibition over CDK2 inhibition” value is given as “B (B=less than 200 fold, but greater than 20 fold)”. Further, the “CDK5/CDK7: Selectivity of CDK7 inhibition over CDK5 inhibition” value on CDK7/Cyclin H/MNAT1 was “B (B=less than 200 fold, but greater than 20 fold)”.

Turning to `CC(C)c1cnn2c(NCc3cccc(NC(=O)c4ccccc4)c3)nc(N3CCC(N)CC3)nc12` [Compound 50], the concentration for half-maximal inhibition (IC50) is 1 to 10 µM in the assay on MOLT-4, less than 1000 nM in the assay on H460 and 1000 to 10000 nM in the assay on HCT116.

Consider `CC(C)c1cnn2c(NCc3ccccc3N(C)C3CCN(C)CC3)nc(N3CCC(N)CC3)nc12` [Compound 53], for which the concentration for half-maximal inhibition (IC50) was 1 to 10 µM with MOLT-4, less than 1000 nM in the assay on H460 and 1000 to 10000 nM with HCT116.

With `CC(C)c1cnn2c(NCc3cccc(-n4cccn4)c3)nc(N3CCC(N)CC3)nc12` [Compound 47], the half-inhibitory concentration (IC50) is 1 to 10 µM in the assay with MOLT-4; less than 100 nM at CDK7/Cyclin H/MNAT1; less than 100 nM at CDK5/p25; less than 1000 nM in the assay with H460; 100 to 1000 nM on CDK1/Cyclin B; 100 to 1000 nM at CDK2/Cyclin A. The molecule further registered an IC50 in the assay on HCT116 of less than 1000 nM. Also, the “CDK1/CDK7: Selectivity of CDK7 inhibition over CDK1 inhibition” value on CDK7/Cyclin H/MNAT1 is on record as “B (B=less than 200 fold, but greater than 20 fold)”. The “CDK2/CDK7: Selectivity of CDK7 inhibition over CDK2 inhibition” value at CDK7/Cyclin H/MNAT1 is “B (B=less than 200 fold, but greater than 20 fold)”. Also, the “CDK5/CDK7: Selectivity of CDK7 inhibition over CDK5 inhibition” value at CDK7/Cyclin H/MNAT1 was “C (C=less than 20 fold)”.
